One data set has as its target T1, 5-HT1B receptors (Homo sapiens, UniProt P28222).
T1 construct: expressed in transfected cells; host or cells: HEK293
The experiment in a line: Receptor binding studies, displacement of (3H)-5-CT on membranes of HEK293 cells expressing 5-HT1B receptors. The following applies: 0.2 nM (3H)-5-CT, 22° C. As for the experimental part:
(§1) HEK293 cells which expressed 5-HT1A or 5-HT1B receptors were cultivated in RPMI 1640 (Life Technologies, Eggenstein, Germany) comprising 10% fetal calf serum. All the culture media were supplemented with 2 mM L-glutamine and 400 mg/l Geneticin G418 (Life Technologies). The cells were grown in a moist atmosphere with 6% CO2 at 37° C. and detached with a buffer comprising 0.0004% EDTA, 0.02% EGTA, 2.68 mM KCl, 1.47 mM KH2PO4, 6.46 mM Na2HPO4 and 136.9 mM NaCl (pH 7.4). The harvested cells were washed once with cold phosphate-buffered Dulbecco's saline solution (PBS), centrifuged (200×g; 10 minutes) and adjusted to a cell density of 10^8 cells per cryovial. After renewed centrifugation, the pellets were resuspended in 1 ml of ice-cold dissolving buffer (5 mM Tris/HCl (pH 7.4), 10% glycerol) and incubated at 4° C. for 30 minutes. The suspension was then centrifuged at 900×g for 10 minutes, the supernatants were removed, and the pellets were stored in liquid nitrogen until used.
(§2) Initially, the affinities of the radio ligands ((^3H)-8-OH-DPAT for 5-HT1A receptors; or (^3H)-5-CT for 5-HT1B receptors) were calculated from saturation plots where triplicate determinations of the specific and nonspecific binding were carried out for each test concentration. Each sample was composed of 50 μg of cellular proteins of the particular membrane preparation, the radio ligand with or without competing compound (5-HT) in a total volume of 0.5 ml. A buffer consisting of 50 mM Tris/HCl (pH 7.4) and 5 mM CaCl2 was used. Incubation was at 22° C. for 9 minutes.
(§3) For Ki determinations, the test compounds were titrated three times in displacement experiments against a fixed concentration of radio ligand ((0.2 nM (^3H)-8-OH-DPAT; or 0.2 nM (^3H)-5-CT). The other test conditions corresponded to those described for the saturation experiments. The total and the nonspecific binding (10 μM 5-HT as competitor of 5-HT1A and 100 μM for 5-HT1B) was determined for each experimental series.
(§4) The incubation for binding and displacement was terminated by filtering and washing the samples on glass fiber filters (GF/B) using a Skatron 7200 cell harvester (Zinsser, Frankfurt, Germany). The sample filters were transferred into scintillation vials comprising 5 ml of scintillator (Ultima Gold XR) and agitated for 1 hour, and then measured in a liquid scintillation counter. Saturation and competition plots were calculated with the aid of a computer program based on LIGAND (Mundson, P J and Reodbard, D; Anal. Biochem. 107, 220 (1980)).

A further data set deals with T2, 5-HT1A receptors (Homo sapiens, UniProt P08908).
T2 construct: expressed in transfected cells; host or cells: HEK293
T2 sequence (P08908 1-422): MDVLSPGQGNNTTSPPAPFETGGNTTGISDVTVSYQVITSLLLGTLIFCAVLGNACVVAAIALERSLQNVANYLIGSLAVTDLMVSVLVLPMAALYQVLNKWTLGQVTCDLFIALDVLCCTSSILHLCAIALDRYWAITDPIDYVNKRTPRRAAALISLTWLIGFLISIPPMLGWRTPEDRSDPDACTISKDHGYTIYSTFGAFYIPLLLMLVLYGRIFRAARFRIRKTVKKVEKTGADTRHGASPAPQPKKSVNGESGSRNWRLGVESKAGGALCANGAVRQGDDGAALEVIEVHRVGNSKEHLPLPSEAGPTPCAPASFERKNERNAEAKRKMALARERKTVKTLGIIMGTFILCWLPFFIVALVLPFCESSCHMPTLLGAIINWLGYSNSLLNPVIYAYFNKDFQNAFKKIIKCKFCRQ
The experiment in a line: Receptor binding studies, displacement of (3H)-8-OH-DPAT on membranes of HEK293 cells expressing 5-HT1A receptors. The following applies: 0.2 nM (3H)-8-OH-DPAT, 22° C. How it is done: as §1, §2, §3, §4

Data set [1] concerns serotonin release in the cortex. The following applies: after systemic administration; cited from earlier work.

By melting point is commonly meant the temperature of the solid-liquid transition. Broadly, the Ki is the dissociation constant of the complex between target and ligand, obtained from inhibition or displacement.

T1 sequence (P28222 whole entry): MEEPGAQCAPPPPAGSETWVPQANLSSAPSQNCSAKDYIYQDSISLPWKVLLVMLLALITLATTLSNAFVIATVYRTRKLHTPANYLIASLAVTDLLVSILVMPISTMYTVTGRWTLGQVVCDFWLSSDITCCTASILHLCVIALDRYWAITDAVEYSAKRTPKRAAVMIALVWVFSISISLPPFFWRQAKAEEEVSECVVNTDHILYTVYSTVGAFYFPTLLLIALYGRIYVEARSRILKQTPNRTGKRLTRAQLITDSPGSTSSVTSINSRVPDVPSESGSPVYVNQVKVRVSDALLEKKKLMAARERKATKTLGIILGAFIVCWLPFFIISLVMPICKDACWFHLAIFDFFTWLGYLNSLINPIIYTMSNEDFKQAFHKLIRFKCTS

As for `CN1CCc2c(sc3ncn(CCN4CCN(c5nc6ccccc6s5)CC4)c(=O)c23)C1` [Example 11, 3-{2-[4-(1,3-Benzothiazol-2-yl)piperazin-1-yl]ethyl}-7-methyl-5,6,7,8-tetrahydropyrido[4′,3′:4,5]thieno[2,3-d]pyrimidin-4(3H)-one], the melting point was in the range of 151 to 153 °C.

As for `CN1CCc2c(sc3ncn(CCN4CC=C(c5c[nH]c6ccccc56)CC4)c(=O)c23)C1` [Example 20, 3-{2-[4-(1H-Indol-3-yl)-3,6-dihydropyridin-1(2H)-yl]ethyl}-7-methyl-5,6,7,8-tetrahydropyrido[4′,3′:4,5]thieno[2,3-d]pyrimidin-4(3H)-one], the figures for the Ki at 5-HT1B receptors and on 5-HT1A receptors were 1 nM and 1.2 nM, respectively.

`COc1ccc(NC(=O)c2ccc(-c3ccc(-c4noc(C)n4)cc3C)cc2)cc1N1CCN(C)CC1` [GR 127 935]: the “serotonin release in the cortex” value in data set [1] is recorded as “reduced”.

Regarding `COc1ccc2[nH]cc(C3=CCN(CCn4cnc5sc6c(c5c4=O)CCN(C)C6)CC3)c2c1` [Example 32, 3-{2-[4-(5-methoxy-1H-indol-3-yl)-3,6-dihydropyridin-1(2H)-yl]ethyl}-7-methyl-5,6,7,8,-tetrahydropyrido[4′,3′:4,5]thieno[2,3-d]pyrimidin-4(3H)-one], the results for the Ki at 5-HT1B receptors and at 5-HT1A receptors were 0.6 nM and 0.5 nM, respectively.

`CN1CCc2c(sc3ncn(CCN4CCN(c5nsc6ccccc56)CC4)c(=O)c23)C1` [Example 4, 3-{2-[4-(1,2-Benzisothiazol-3-yl)piperazin-1-yl]ethyl}-7-methyl-5,6,7,8-tetrahydropyrido[4′,3′:4,5]thieno[2,3-d]pyrimidin-4(3H)-one] gave a melting point of 82 to 84 °C. For the same compound, the Ki at 5-HT1B receptors was found to be 0.9 nM. At 5-HT1A receptors, the Ki was 1.4 nM.

`CN1CCc2c(sc3ncn(CCN4CC=C(c5csc6ccccc56)CC4)c(=O)c23)C1` [Example 28, 3-{2-[4-(1-Benzothien-3-yl)-3,6-dihydropyridin-1 (2H)-yl]ethyl}-7-methyl-5,6,7,8-tetrahydropyrido[4′,3′:4,5]thieno[2,3-d]pyrimidin-4(3H)-one]: the Ki was determined as 2 nM on 5-HT1B receptors and 1.3 nM on 5-HT1A receptors.

As to `CN1CCc2c(sc3ncn(CCN4CCN(c5n[nH]c6ccccc56)CC4)c(=O)c23)C1` [Example 13, 3-{2-[4-(1H-Indazol-3-yl)piperazin-1-yl]ethyl}-7-methyl-5,6,7,8-tetrahydropyrido[4′,3′:4,5]thieno[2,3-d]pyrimidin-4(3H)-one], the Ki on 5-HT1B receptors was 3.5 nM; on 5-HT1A receptors it was 11.5 nM.

In the case of `CN1CCc2c(sc3ncn(CCN4CCN(c5nc6cc(C(F)(F)F)ccc6s5)CC4)c(=O)c23)C1` [Example 6, 7-Methyl-3-(2-{4-[5-(trifluoromethyl)-1,3-benzothiazol-2-yl]piperazin-1-yl}ethyl)-5,6,7,8-tetrahydropyrido[4′,3′:4,5]thieno[2,3-d]pyrimidin-4(3H)-one], the melting point is 166 to 167 °C.

`CN1CCc2c(sc3ncn(CCN4CCN(c5nc6ccccc6[nH]5)CC4)c(=O)c23)C1` [Example 8, 3-{2-[4-(1H-Benzimidazol-2-yl)piperazin-1-yl]ethyl}-7-methyl-5,6,7,8-tetrahydropyrido[4′,3′:4,5]thieno[2,3-d]pyrimidin-4(3H)-one]: the melting point lay within 227 to 229 °C.

As for `Cc1ccc2onc(N3CCN(CCn4cnc5sc6c(c5c4=O)CCN(C)C6)CC3)c2c1` [Example 9, 7-Methyl-3-{2-[4-(5-methyl-1,2-benzisoxazol-3-yl)piperazin-1-ium-1-yl]ethyl}-4-oxo-3,4,5,6,7,8-hexahydropyrido[4′,3′:4,5]thieno[2,3-d]spyrimidin-7-ium dichloride], the Ki at 5-HT1B receptors was 4.5 nM; on 5-HT1A receptors it was 6.2 nM.

For `COc1ccc2onc(N3CCN(CCn4cnc5sc6c(c5c4=O)CCN(C)C6)CC3)c2c1` [Example 15, 4-(5-Methoxy-1,2-benzisoxazol-3-yl)-1-[2-(7-methyl-4-oxo-5,6,7,8-tetrahydropyrido[4′,3′:4,5]thieno[2,3-d]pyrimidin-3(4H)-yl)ethyl]piperazin-1-ium chloride], the Ki on 5-HT1B receptors was determined as 7.9 nM; at 5-HT1A receptors, 13.7 nM.

As for `COc1ccc2c(c1)c(C1CCN(CCn3cnc4sc5c(c4c3=O)CCN(C)C5)CC1)cn2C` [Example 16, 4-(5-Methoxy-1-methyl-1H-indol-3-yl)-1-[2-(7-methyl-4-oxo-5,6,7,8-tetrahydropyrido[4′,3′:4,5]thieno[2,3-d]pyrimidin-3(4H)-yl)ethyl]piperidinium chloride], the Ki came to 2.3 nM at 5-HT1B receptors and 1.3 nM on 5-HT1A receptors.

On to `CN1CCc2c(sc3ncn(CCN4CCC(c5cc(-c6cccs6)[nH]n5)CC4)c(=O)c23)C1` [Example 24, 1-[2-(7-Methyl-4-oxo-5,6,7,8-tetrahydropyrido[4′,3′:4,5]thieno[2,3-d]pyrimidin-3(4H)-yl)ethyl]-4-[5-(2-thienyl)-1 H-pyrazol-3-yl]piperidinium chloride], for which the Ki worked out at 286 nM on 5-HT1B receptors and 98.3 nM at 5-HT1A receptors.

As for `CN1CCc2c(sc3ncn(CCN4CCN(c5nsc6cccc(Cl)c56)CC4)c(=O)c23)C1` [Example 5, 3-{2-[4-(4-Chloro-1,2-benzisothiazol-3-yl)piperazin-1-yl]ethyl}-7-methyl-5,6,7,8-tetrahydropyrido[4′,3′:4,5]thieno[2,3-d]pyrimidin-4(3H)-one], the melting point was in the range of 88 to 89 °C.

Compound `CN1CCc2c(sc3ncn(CCN4CCN(c5nc6ccc(Cl)cc6s5)CC4)c(=O)c23)C1` [Example 7, 3-{2-[4-(6-Chloro-1,3-benzothiazol-2-yl)piperazin-1-yl]ethyl}-7-methyl-5,6,7,8-tetrahydropyrido[4′,3′:4,5]thieno[2,3-]pyrimidin-4(3H)-one] came in with a melting point of 160 to 162 °C.

`CN1CCc2c(sc3ncn(CCN4CCN(c5snc6ccccc56)CC4)c(=O)c23)C1` [Example 31, 4-(2,1-Benzisothiazol-3-yl)-1-[2-(7-methyl-4-oxo-5,6,7,8-tetrahydropyrido[4′,3′:4,5]thieno[2,3-d]pyrimidin-3(4H)-yl)ethyl]piperazin-1-ium chloride]: the Ki at 5-HT1B receptors was found to be 24.3 nM; on 5-HT1A receptors, 42.7 nM.

Take `CN1CCc2c(sc3ncn(CCN4CC=C(c5c[nH]c6ncccc56)CC4)c(=O)c23)C1` [Example 21, 1-[2-(7-Methyl-4-oxo-5,6,7,8-tetrahydropyrido[4′,3′:4,5]thieno[2,3-d]pyrimidin-3(4H)-yl)ethyl]-4-(1H-pyrrolo[2,3-b]pyridin-3-yl)-1,2,3,6-tetrahydropyridinium acetate]: the results for the Ki on 5-HT1B receptors and on 5-HT1A receptors were 1 nM and 14.6 nM, respectively.

Take `CN1CCc2c(sc3ncn(CCN4CCN(c5nc6ccccc6o5)CC4)c(=O)c23)C1` [Example 10, 3-{2-[4-(1,3-Benzoxazol-2-yl)piperazin-1-yl]ethyl}-7-methyl-5,6,7,8-tetrahydropyrido[4′,3′:4,5]thieno[2,3-d]pyrimidin-4(3H)-one]: the melting point lay in the range of 130 to 132 °C.

The record behind these values is patent US7491729B2, “3-Substituted 3,4-dihydro-thieno[2,3-d]pyrimidin-4-one derivatives, production and use thereof” (Abbott GmbH & Co. KG, priority 2002, dated 2009).
